Results as given in the NIST ThermoML archive (doi:10.1021/je300530z).
± gives the expanded uncertainty stated by the source.

Key:
[1] = 100 kPa, Liquid, Vibrating tube method
[2] = wn = mass fraction of the nth substance listed; settings: Liquid, Vibrating tube method

CN(CCO)CCO [N-methyldiethanolamine]
[1]
Settings | mass density [kg/m3]
293.15 K | 1039.9 ± 0.27
303.15 K | 1032.4 ± 0.26
313.15 K | 1024.9 ± 0.26
323.15 K | 1017.2 ± 0.25
333.15 K | 1009.5 ± 0.25
343.15 K | 1001.7 ± 0.24
353.15 K | 993.9 ± 0.24
363.15 K | 986 ± 0.24
373.15 K | 978.28 ± 0.24
383.15 K | 970.22 ± 0.24
393.15 K | 962.03 ± 0.24
403.15 K | 953.71 ± 0.24
413.15 K | 945.29 ± 0.24
423.15 K | 936.81 ± 0.25

OCCNCCO [diethanolamine] + O
mass density [kg/m3], [2]
Settings | w1 = 0.5 | w1 = 0.6 | w1 = 0.7 | w1 = 0.8
293.15 K, 101 kPa | 1060.7 ± 3.5 | 1073.1 ± 3.5 | 1082.5 ± 3.4 | 1089.6 ± 3.4
303.15 K, 101 kPa | 1055.5 ± 3.5 | 1067.4 ± 3.5 | 1076.5 ± 3.4 | 1083.6 ± 3.4
313.15 K, 101 kPa | 1050 ± 3.5 | 1061.4 ± 3.5 | 1070.3 ± 3.4 | 1077.4 ± 3.4
323.15 K, 101 kPa | 1044.1 ± 3.5 | 1055.2 ± 3.5 | 1064 ± 3.4 | 1070.9 ± 3.4
333.15 K, 101 kPa | 1037.9 ± 3.5 | 1048.6 ± 3.5 | 1057.3 ± 3.4 | 1064.2 ± 3.4
343.15 K, 101 kPa | 1031.4 ± 3.5 | 1041.9 ± 3.5 | 1050.5 ± 3.4 | 1057.4 ± 3.4
353.15 K, 101 kPa | 1024.51 ± 3.5 | 1034.7 ± 3.5 | 1043.5 ± 3.4 | 1050.5 ± 3.4
363.15 K, 101 kPa | 1017.38 ± 3.5 | 1027.3 ± 3.5 | 1036.1 ± 3.4 | 1043.1 ± 3.4
373.15 K, 800 kPa | 1010.04 ± 3.5 | 1020 ± 3.5 | 1028.87 ± 3.4 | 1035.98 ± 3.4
383.15 K, 800 kPa | 1002.15 ± 3.5 | 1012.14 ± 3.5 | 1020.89 ± 3.4 | 1028.08 ± 3.4
393.15 K, 800 kPa | 994.94 ± 3.5 | 1003.87 ± 3.4 | 1012.73 ± 3.4 | 1020.14 ± 3.4
403.15 K, 800 kPa | 985.63 ± 3.5 | 995.45 ± 3.5 | 1004.18 ± 3.4 | 1012.1 ± 3.4
413.15 K, 800 kPa | 976.68 ± 3.5 | 986.55 ± 3.5 | 995.42 ± 3.4 | 1003.23 ± 3.4
423.15 K, 800 kPa | 967.44 ± 3.5 | 977.38 ± 3.5 | 986.45 ± 3.4 | 995.43 ± 3.4

CN(CCO)CCO [N-methyldiethanolamine] + O
mass density [kg/m3], [2]
Settings | w1 = 0.5 | w1 = 0.6 | w1 = 0.7 | w1 = 0.8
293.15 K, 101 kPa | 1045.8 ± 2.7 | 1052.6 ± 2.7 | 1056.1 ± 2.7 | 1055.5 ± 2.7
303.15 K, 101 kPa | 1039.6 ± 2.7 | 1045.8 ± 2.7 | 1048.8 ± 2.7 | 1048.1 ± 2.7
313.15 K, 101 kPa | 1033 ± 2.7 | 1038.6 ± 2.7 | 1041.3 ± 2.7 | 1040.5 ± 2.7
323.15 K, 101 kPa | 1026.1 ± 2.7 | 1031.2 ± 2.7 | 1033.6 ± 2.7 | 1032.6 ± 2.7
333.15 K, 101 kPa | 1018.9 ± 2.7 | 1023.6 ± 2.7 | 1025.6 ± 2.7 | 1024.6 ± 2.7
343.15 K, 101 kPa | 1011.4 ± 2.7 | 1015.6 ± 2.7 | 1017.4 ± 2.7 | 1016.4 ± 2.7
353.15 K, 101 kPa | 1003.5 ± 2.7 | 1007.4 ± 2.7 | 1009 ± 2.7 | 1007.9 ± 2.7
363.15 K, 101 kPa | 995.3 ± 2.7 | 998.9 ± 2.7 | 1000.4 ± 2.7 | 999.3 ± 2.7
373.15 K, 800 kPa | 987 ± 2.7 | 990.32 ± 2.7 | 991.79 ± 2.7 | 990.82 ± 2.7
383.15 K, 800 kPa | 978.16 ± 2.7 | 981.18 ± 2.7 | 982.65 ± 2.7 | 981.74 ± 2.7
393.15 K, 800 kPa | 968.93 ± 2.7 | 971.76 ± 2.7 | 973.23 ± 2.7 | 972.51 ± 2.7
403.15 K, 800 kPa | 959.28 ± 2.7 | 962.08 ± 2.7 | 963.68 ± 2.7 | 963.09 ± 2.7
413.15 K, 800 kPa | 949.4 ± 2.7 | 952.13 ± 2.7 | 953.72 ± 2.7 | 953.38 ± 2.7
423.15 K, 800 kPa | 939.06 ± 2.7 | 941.91 ± 2.7 | 943.63 ± 2.7 | 943.53 ± 2.7
